Data taken from US9328106B2, “Cyclic ether pyrazol-4-yl-heterocyclyl-carboxamide compounds and methods of use” (Genentech, Inc., priority 2012, dated 2016).
Read-outs that look alike come from different tables or passages of the source.

Target: PIM1 (Homo sapiens (Human), UniProt P11309)
Assay: biochemical
Format: biochemical
[1] = 20 pM PIM1, 1 μM FAM-peptide, 10 μM ATP, 90 minutes at room temperature, read-out: PIM1 LC3K (KI)

Sequence of PIM1 (P11309 whole entry): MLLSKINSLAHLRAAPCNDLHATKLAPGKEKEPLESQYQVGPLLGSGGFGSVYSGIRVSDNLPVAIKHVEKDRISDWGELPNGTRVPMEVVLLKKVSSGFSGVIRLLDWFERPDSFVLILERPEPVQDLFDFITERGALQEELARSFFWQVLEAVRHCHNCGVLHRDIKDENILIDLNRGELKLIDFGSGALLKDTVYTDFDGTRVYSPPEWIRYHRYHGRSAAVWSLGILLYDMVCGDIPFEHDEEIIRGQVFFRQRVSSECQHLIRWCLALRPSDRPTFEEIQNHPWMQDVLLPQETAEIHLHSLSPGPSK
Protocol: Reaction Buffer contained 10 mM HEPES, pH 7.2, 10 mM MgCl2, 0.01% Tween 20, 2 mM DTT. Termination Buffer contained 190 mM HEPES, pH 7.2, 0.015% Brij-35, 0.2% Coating Reagent 3 (Caliper Life Sciences, Hopkinton, Mass.), 20 mM EDTA. Separation Buffer contained 100 mM HEPES, pH 7.2, 0.015% Brij-35, 0.1% Coating Reagent 3, 1:200 Coating Reagent 8 (Caliper Life Sciences, Hopkinton, Mass.), 10 mM EDTA and 5% DMSO.
PIM reactions were carried out in a final volume of 10 μL per well in a 384-well plate. […] After 90 minutes of incubation at room temperature, the phosphorylation reaction was stopped by the addition of 10 μL Termination Buffer. The product and substrate in each independent reaction were separated on a 12-sipper microfluidic chip (Caliper Life Sciences, Hopkinton, Mass.) run on a Caliper LC3000® (Caliper Life Sciences, Hopkinton, Mass.). The separation of product and substrate was optimized by choosing voltages and pressure using Caliper's Optimizer software (Hopkinton, Mass.). The separation conditions used a downstream voltage of −500V, an upstream voltage of −2150V, and a screening pressure of −1.2 psi. […] Substrate conversion was calculated from the electropherogram using HTS Well Analyzer software (Caliper Life Sciences, Hopkinton, Mass.). Ki values for the test compound were calculated.

| SMILES | Ki [1] | Ki |
| --- | --- | --- |
| CO[C@H]1C[C@H](c2c(NC(=O)c3nc(-c4c(F)cccc4F)sc3N)cnn2C)OCC[C@@H]1N [Example 138, 5-amino-N-(5-((2R,4S,5S)-5-amino-4-methoxyoxepan-2-yl)-1-methyl-1H-pyrazol-4-yl)-2-(2,6-difluorophenyl)thiazole-4-carboxamide] | 1870 pM |  |
| Cn1ncc(NC(=O)c2nc(-c3c(F)cccc3F)sc2N)c1[C@H]1OC[C@H](CN)CO1 [Example 167, 5-Amino-N-[5-[5-(aminomethyl)-1,3-dioxan-2-yl]-1-methyl-pyrazol-4-yl]-2-(2,6-difluorophenyl)thiazole-4-carboxamide] | 29 pM |  |
| Cn1ncc(NC(=O)c2nc(-c3c(F)cccc3F)sc2N)c1[C@H]1CC[C@H](N)C(F)(F)CO1 [Example 169, 5-Amino-N-[5-[(2R,5S)-5-amino-6,6-difluoro-oxepan-2-yl]-1-methyl-pyrazol-4-yl]-2-(2,6-difluorophenyl)thiazole-4-carboxamide] | 341 pM |  |
| COc1cc(F)c(-c2nc(C(=O)Nc3cnn(C)c3[C@@H]3CC[C@@H](N)[C@@H](OC)CO3)cs2)c(F)c1 [Example 265, N-(5-((2S,5R,6R)-5-amino-6-methoxyoxepan-2-yl)-1-methyl-1H-pyrazol-4-yl)-2-(2,6-difluoro-4-methoxyphenyl)thiazole-4-carboxamide] | 34 pM |  |
| Cn1ncc(NC(=O)c2nc(-c3c(F)cccc3F)sc2N)c1[C@H]1OC[C@@](C)(CN)CO1 [Example 178, 5-Amino-N-[5-[5-(aminomethyl)-5-methyl-1,3-dioxan-2-yl]-1-methyl-pyrazol-4-yl]-2-(2,6-difluorophenyl)thiazole-4-carboxamide] | 155 pM |  |
| Cn1ncc(NC(=O)c2nc(-c3c(F)cccc3F)sc2N)c1C1=CCCCO1 [Example 102, 5-amino-2-(2,6-difluorophenyl)-N-[5-(3,4-dihydro-2H-pyran-6-yl)-1-methyl-pyrazol-4-yl]thiazole-4-carboxamide] | 408 pM |  |
| CO[C@H]1CO[C@H](c2c(NC(=O)c3nc(-c4ccccc4F)sc3N)cnn2C)CC[C@H]1N [Example 183, 5-Amino-N-[5-[(2S,5R,6R)-5-amino-6-methoxy-oxepan-2-yl]-1-methyl-pyrazol-4-yl]-2-(2-fluorophenyl)thiazole-4-carboxamide] | 14.3 pM |  |
| Cn1ncc(NC(=O)c2nc(-c3c(F)cccc3F)sc2N)c1C1CCCCO1 (centres unmarked) [Example 104, 5-amino-2-(2,6-difluorophenyl)-N-(1-methyl-5-tetrahydropyran-2-yl-pyrazol-4-yl)thiazole-4-carboxamide] | 424 pM |  |
| Cn1ncc(NC(=O)c2ccc(F)c(-c3c(F)cc(OCCO)cc3F)n2)c1[C@@H]1CC[C@@H](N)[C@@H](F)CO1 [Example 190, N-(5-((2S,5R,6R)-5-Amino-6-fluorooxepan-2-yl)-1-methyl-1H-pyrazol-4-yl)-6-(2,6-difluoro-4-(2-hydroxyethoxy)phenyl)-5-fluoropicolinamide] | 14 pM |  |
| Cn1ncc(NC(=O)c2ccc(F)c(-c3c(F)cc(C4(O)CCOCC4)cc3F)n2)c1[C@@H]1CC[C@@H](N)[C@H](F)CO1 [Example 196, N-(5-((2S,5R,6S)-5-amino-6-fluorooxepan-2-yl)-1-methyl-1H-pyrazol-4-yl)-6-(2,6-difluoro-4-(4-hydroxytetrahydro-2H-pyran-4-yl)phenyl)-5-fluoropicolinamide] | 6 pM |  |
| Cn1ncc(NC(=O)c2nc(-c3c(F)cccc3F)sc2N)c1[C@H]1OC[C@@](C)(CO)CO1 [Example 166, 5-Amino-2-(2,6-difluorophenyl)-N-[5-[5-(hydroxymethyl)-5-methyl-1,3-dioxan-2-yl]-1-methyl-pyrazol-4-yl]thiazole-4-carboxamide] | 514 pM |  |
| COCCOc1cc(F)c(-c2nc(C(=O)Nc3cnn(C)c3[C@@H]3CC[C@@H](N)[C@@H](F)CO3)ccc2F)c(F)c1 [Example 189, N-(5-((2S,5R,6R)-5-Amino-6-fluorooxepan-2-yl)-1-methyl-1H-pyrazol-4-yl)-6-(2,6-difluoro-4-(2-methoxyethoxy)phenyl)-5-fluoropicolinamide] | 25 pM |  |
| Cn1ncc(NC(=O)c2nc(-c3c(F)cccc3F)sc2N)c1C1OCC(CO)CO1 (centres unmarked) [Example 164, 5-Amino-2-(2,6-difluorophenyl)-N-[5-[5-(hydroxymethyl)-1,3-dioxan-2-yl]-1-methyl-pyrazol-4-yl]thiazole-4-carboxamide] | 105 pM |  |
| [2H]C([2H])([2H])O[C@@H]1CO[C@H](c2c(NC(=O)c3nc(-c4c(F)cccc4F)sc3N)cnn2C)CC[C@H]1N [Example 174, 5-Amino-N-[5-[(2S,5R,6S)-5-amino-6-(trideuteriomethoxy)oxepan-2-yl]-1-methyl-pyrazol-4-yl]-2-(2,6-difluorophenyl)thiazole-4-carboxamide] |  | 135 pM |

Continued, values first:

| Ki [1] | Ki | SMILES |
| --- | --- | --- |
| 21 pM |  | Cn1ncc(NC(=O)c2ccc(F)c(-c3c(F)cc(C4(O)CCC4)cc3F)n2)c1[C@@H]1CC[C@@H](N)[C@H](F)CO1 [Example 198, N-(5-((2S,5R,6S)-5-amino-6-fluorooxepan-2-yl)-1-methyl-1H-pyrazol-4-yl)-6-(2,6-difluoro-4-(1-hydroxycyclobutyl)phenyl)-5-fluoropicolinamide] |
| 132 pM |  | Cn1ncc(NC(=O)c2csc(-c3cccc(F)c3Cl)n2)c1[C@@H]1CC[C@@H](N)[C@@H](F)CO1 [Example 250, N-(5-((2S,5R,6R)-5-amino-6-fluorooxepan-2-yl)-1-methyl-1H-pyrazol-4-yl)-2-(2-chloro-3-fluorophenyl)thiazole-4-carboxamide] |
| 25 pM |  | Cc1c(-c2nc(C(=O)Nc3cnn(C)c3[C@@H]3CC[C@@H](N)[C@H](F)CO3)c(N)s2)cnn1C [Example 257, 5-amino-N-(5-((2S,5R,6S)-5-amino-6-fluorooxepan-2-yl)-1-methyl-1H-pyrazol-4-yl)-2-(1,5-dimethyl-1H-pyrazol-4-yl)thiazole-4-carboxamide] |
| 10 pM |  | Cn1ncc(NC(=O)c2nc(-c3ccc(C(F)(F)F)cc3F)sc2N)c1[C@@H]1CC[C@@H](N)[C@@H](F)CO1 [Example 259, 5-amino-N-(5-((2S,5R,6R)-5-amino-6-fluorooxepan-2-yl)-1-methyl-1H-pyrazol-4-yl)-2-(2-fluoro-4-(trifluoromethyl)phenyl)thiazole-4-carboxamide] |
| 68 pM |  | Cc1noc(C)c1-c1nc(C(=O)Nc2cnn(C)c2[C@@H]2CC[C@@H](N)[C@H](F)CO2)cs1 [Example 234, N-(5-((2S,5R,6S)-5-amino-6-fluorooxepan-2-yl)-1-methyl-1H-pyrazol-4-yl)-2-(3,5-dimethylisoxazol-4-yl)thiazole-4-carboxamide] |
| 47 pM |  | Cn1ncc(NC(=O)c2csc(-c3c(F)ccc(F)c3F)n2)c1[C@@H]1CC[C@@H](N)[C@H](F)CO1 [Example 243, N-(5-((2S,5R,6S)-5-amino-6-fluorooxepan-2-yl)-1-methyl-1H-pyrazol-4-yl)-2-(2,3,6-trifluorophenyl)thiazole-4-carboxamide] |
| 34 pM |  | CCC(=O)c1cc(F)c(-c2nc(C(=O)Nc3cnn(C)c3[C@@H]3CC[C@@H](N)[C@H](F)CO3)ccc2F)c(F)c1 [Example 205, N-(5-((2S,5R,6S)-5-amino-6-fluorooxepan-2-yl)-1-methyl-1H-pyrazol-4-yl)-6-(2,6-difluoro-4-propionylphenyl)-5-fluoropicolinamide] |
| 30 pM |  | Cn1ncc(NC(=O)c2nc(C3=CCCC3)sc2N)c1[C@@H]1CC[C@@H](N)[C@H](F)CO1 [Example 333, 5-amino-N-(5-((2S,5R,6S)-5-amino-6-fluorooxepan-2-yl)-1-methyl-1H-pyrazol-4-yl)-2-(cyclopent-1-en-1-yl)thiazole-4-carboxamide] |
| 37 pM |  | COC(C)c1cc(F)c(-c2nc(C(=O)Nc3cnn(C)c3[C@@H]3CC[C@@H](N)[C@@H](F)CO3)ccc2F)c(F)c1 (stereo partly drawn) [Example 211, N-(5-((2S,5R,6R)-5-amino-6-fluorooxepan-2-yl)-1-methyl-1H-pyrazol-4-yl)-6-(2,6-difluoro-4-(1-methoxyethyl)phenyl)-5-fluoropicolinamide] |
| 50 pM |  | CO[C@H]1CO[C@H](c2c(NC(=O)c3nc(-c4cccc(F)c4F)sc3N)cnn2C)CC[C@H]1N [Example 219, 5-amino-N-(5-((2S,5R,6R)-5-amino-6-methoxyoxepan-2-yl)-1-methyl-1H-pyrazol-4-yl)-2-(2,3-difluorophenyl)thiazole-4-carboxamide] |
| 58 pM |  | Cn1ncc(NC(=O)c2csc(-c3cc(F)ccc3F)n2)c1[C@@H]1CC[C@@H](N)[C@H](F)CO1 [Example 301, N-(5-((2S,5R,6S)-5-amino-6-fluorooxepan-2-yl)-1-methyl-1H-pyrazol-4-yl)-2-(2,5-difluorophenyl)thiazole-4-carboxamide] |
| 61 pM |  | Cn1ncc(NC(=O)c2nc(-c3c(F)cccc3C(F)(F)F)sc2N)c1[C@@H]1CC[C@@H](N)[C@@H](F)CO1 [Example 278, 5-amino-N-(5-((2S,5R,6R)-5-amino-6-fluorooxepan-2-yl)-1-methyl-1H-pyrazol-4-yl)-2-(2-fluoro-6-(trifluoromethyl)phenyl)thiazole-4-carboxamide] |
| 10 pM |  | CO[C@H]1CO[C@H](c2c(NC(=O)c3nc(-c4c(F)ccc(F)c4F)sc3N)cnn2C)CC[C@H]1N [Example 262, 5-amino-N-(5-((2S,5R,6R)-5-amino-6-methoxyoxepan-2-yl)-1-methyl-1H-pyrazol-4-yl)-2-(2,3,6-trifluorophenyl)thiazole-4-carboxamide] |
| 66 pM |  | CO[C@H]1CO[C@H](c2c(NC(=O)c3csc(-c4c(F)cccc4F)n3)cnn2C)CC[C@H]1N [Example 221, N-(5-((2S,5R,6R)-5-amino-6-methoxyoxepan-2-yl)-1-methyl-1H-pyrazol-4-yl)-2-(2,6-difluorophenyl)thiazole-4-carboxamide] |
| 3 pM |  | Cn1ncc(NC(=O)c2csc(-c3ccc(C4(C)COC4)cc3F)n2)c1[C@@H]1CC[C@@H](N)[C@H](F)CO1 [Example 393, N-(5-((2S,5R,6S)-5-amino-6-fluorooxepan-2-yl)-1-methyl-1H-pyrazol-4-yl)-2-(2-fluoro-4-(3-methyloxetan-3-yl)phenyl)thiazole-4-carboxamide] |
